This note sets out measurements from ChEMBL document CHEMBL1201862, “PubChem BioAssay data set” (2004).

SMILES strings stand for the structures.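 Exposure lasted 48 hours, with cells grown in 96-well plates and compounds tested at five concentrations. At the GI50, growth is halved.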 Activity calls are given as the source filed them. Rule as the data show it: active = GI50 up to about 1.1 µM and inactive = higher. Some results are limits rather than exact numbers.

Among the test systems are 786-0; CCRF-CEM; COLO 205; EKVX; HCT-15; HL-60; HOP-92; HT-29; IGROV-1; MOLT-4; OVCAR-3; RPMI-8226; SF-268; SN12C; SNB-19; SW-620; UACC-62; DU-145; MDA-MB-231.
Holding throughout (test): inhibition of tumour cell growth, NCI panel, 48 h

`CCOc1cc2cnc3c4cc(OC)c(OC)cc4ccc3c2cc1OC`: the GI50 with 786-0 was > 100 µM (inactive); in the assay on CCRF-CEM, 23.8 µM (inactive); with COLO 205 it was 4.92 µM (inactive); in the assay with EKVX, > 100 µM (inactive); in the assay on HCT-15 it was greater than 100 µM; in the assay on HL-60 it was 40.2 µM (inactive). Besides, the GI50 in the assay on HOP-92 was > 100 µM (inactive); with HT-29, > 100 µM (inactive); in the assay with IGROV-1 it was > 100 µM (inactive); with MOLT-4, 49.8 µM (inactive); in the assay with OVCAR-3 it was 29.9 µM (inactive); in the assay on RPMI-8226, > 100 µM (inactive). In addition, the GI50 with SF-268 is 37.3 µM (inactive); in the assay on SN12C, 30 µM (inactive); in the assay with SNB-19, 19.4 µM (inactive); in the assay with SW-620, > 100 µM (inactive); in the assay on UACC-62, > 100 µM (inactive).

Consider `Cc1cccc(C)c1NC(=O)CCc1n[nH]c(=S)o1`, for which the GI50 in the assay on 786-0 is 71.9 µM (inactive); with CCRF-CEM, > 100 µM (inactive); in the assay on COLO 205, 30.8 µM (inactive); in the assay on EKVX it was > 100 µM (inactive); in the assay on HCT-15, 78.5 µM; in the assay with HL-60, > 100 µM (inactive). In addition, the GI50 was > 100 µM (inactive) in the assay with HOP-92; > 100 µM (inactive) in the assay with HT-29; > 100 µM (inactive) with IGROV-1; > 100 µM (inactive) with MOLT-4; > 100 µM (inactive) in the assay on OVCAR-3; 22.2 µM (inactive) in the assay with RPMI-8226. Also, the GI50 in the assay on SF-268 is > 100 µM (inactive); in the assay with SN12C, > 100 µM (inactive); in the assay on SNB-19, > 100 µM (inactive); in the assay with SW-620, 18.1 µM (inactive); with UACC-62, > 100 µM (inactive).

Turning to `O=C1/C(=C/c2cccs2)NC(=S)N1CN1CCOCC1`, the GI50 is > 100 µM (inactive) with 786-0; > 100 µM (inactive) in the assay with CCRF-CEM; > 100 µM (inactive) in the assay on COLO 205; > 100 µM (inactive) in the assay with DU-145; > 100 µM (inactive) in the assay with EKVX; greater than 100 µM in the assay with HCT-15. Besides, the GI50 with HOP-92, in the assay with HT-29, in the assay on IGROV-1, in the assay with MDA-MB-231, with MOLT-4 and in the assay on OVCAR-3 was > 100 µM (inactive) throughout. Moreover, the GI50 with RPMI-8226, in the assay with SF-268, with SN12C, in the assay on SNB-19, in the assay with SW-620 and with UACC-62 was > 100 µM (inactive) throughout.

For the compound `Cc1nc(N)sc1C(=O)/C=C/c1ccc(/C=C/C(=O)c2sc(NC(=O)CCCCCCCCC(=O)Nc3nc(C)c(C(=O)/C=C/c4ccc(/C=C/C(=O)c5sc(N)nc5C)cc4)s3)nc2C)cc1`, the GI50 was > 100 µM (inactive) in the assay on 786-0; 80.9 µM (inactive) in the assay on CCRF-CEM; > 100 µM (inactive) with COLO 205; > 100 µM (inactive) in the assay with EKVX; greater than 100 µM in the assay on HCT-15; > 100 µM (inactive) with HL-60. Besides, the GI50 is < 0.01 µM (active) in the assay on HOP-92; > 100 µM (inactive) with HT-29; > 100 µM (inactive) in the assay on IGROV-1; > 100 µM (inactive) in the assay on MOLT-4; 62.8 µM (inactive) with OVCAR-3; > 10 µM (inactive) with RPMI-8226. The GI50 with SF-268 is > 100 µM (inactive); with SN12C, > 100 µM (inactive); with SNB-19, > 100 µM (inactive); in the assay with SW-620 it was > 100 µM (inactive); in the assay with UACC-62, 27.7 µM (inactive).

In the case of `COc1cc(C2(C)SCCCS2)c(I)c(OC)c1OC`, the GI50 was > 100 µM (inactive) in the assay with 786-0; > 100 µM (inactive) in the assay on CCRF-CEM; > 100 µM (inactive) with COLO 205; > 100 µM (inactive) in the assay with EKVX; greater than 100 µM in the assay on HCT-15; > 100 µM (inactive) in the assay with HL-60. Also, the GI50 in the assay on HOP-92, with HT-29, with IGROV-1, with MOLT-4, in the assay on OVCAR-3 and with RPMI-8226 was > 100 µM (inactive) each time. In addition, the GI50 with SF-268, in the assay with SN12C, with SNB-19, in the assay with SW-620 and with UACC-62 was > 100 µM (inactive) throughout.

Consider `CP(C)C.[Ag][I]`, for which the GI50 with 786-0 is > 100 µM (inactive); in the assay with CCRF-CEM, 22 µM (inactive); with COLO 205 it was 47.9 µM (inactive); in the assay on EKVX it was > 100 µM (inactive); with HCT-15, greater than 100 µM; in the assay with HL-60, > 100 µM (inactive). For the same compound, the GI50 was 40.2 µM (inactive) in the assay on HOP-92; > 100 µM (inactive) in the assay with HT-29; 40.4 µM (inactive) with IGROV-1; > 100 µM (inactive) with MOLT-4; > 100 µM (inactive) in the assay on OVCAR-3; > 100 µM (inactive) in the assay with RPMI-8226. For the same compound, the GI50 in the assay with SF-268, in the assay with SN12C, in the assay with SNB-19, with SW-620 and with UACC-62 was > 100 µM (inactive) throughout.

Consider `COC(=O)CC(C)(N[S+]([O-])c1ccc(C)cc1)c1ccccc1` (configuration not stated), for which the GI50 in the assay with 786-0 is > 100 µM (inactive); in the assay with COLO 205, > 100 µM (inactive); in the assay with DU-145, > 100 µM (inactive); in the assay with EKVX it was > 100 µM (inactive); in the assay with HCT-15, greater than 100 µM; in the assay on HL-60 it was > 100 µM (inactive). Further, the GI50 in the assay on HOP-92, in the assay with HT-29, with IGROV-1, with MDA-MB-231, in the assay on MOLT-4 and in the assay with OVCAR-3 was > 100 µM (inactive) in each case. Also, the GI50 with RPMI-8226, with SF-268, in the assay on SN12C, in the assay on SNB-19, in the assay with SW-620 and with UACC-62 was > 100 µM (inactive) each time.

As for `c1coc(-c2nccc3c2[nH]c2ccccc23)c1`, the GI50 with 786-0 is > 100 µM (inactive); in the assay on CCRF-CEM, > 100 µM (inactive); with COLO 205, 17.5 µM (inactive); in the assay on DU-145, > 100 µM (inactive); in the assay on EKVX, > 100 µM (inactive); in the assay on HCT-15, greater than 100 µM. The GI50 with HL-60 was > 100 µM (inactive); with HOP-92, 35 µM (inactive); with HT-29, > 100 µM (inactive); in the assay with IGROV-1 it was > 100 µM (inactive); with MDA-MB-231 it was > 100 µM (inactive); in the assay on MOLT-4, > 100 µM (inactive). The GI50 with OVCAR-3, in the assay with SF-268, in the assay with SN12C, in the assay with SNB-19, with SW-620 and in the assay with UACC-62 was > 100 µM (inactive) throughout.

With `CC(=O)OC1CC2C(C)(C)C(=O)C=C[C@]2(C)C2CCC3(C)C(c4ccoc4)C(=O)C4OC43[C@]12C` (some centres not stated), the GI50 is 25.9 µM (inactive) with 786-0; 20.8 µM (inactive) with CCRF-CEM; 18.1 µM (inactive) in the assay on COLO 205; 40.5 µM (inactive) with EKVX; 14.4 µM in the assay on HCT-15; 12.4 µM (inactive) in the assay on HL-60. In addition, the GI50 with HOP-92 is 15.8 µM (inactive); in the assay on HT-29 it was 16.3 µM (inactive); in the assay on IGROV-1 it was 21 µM (inactive); in the assay with MOLT-4 it was 13.4 µM (inactive); with OVCAR-3 it was 18.3 µM (inactive); with RPMI-8226 it was 2.77 µM (inactive). The GI50 is 21.7 µM (inactive) in the assay on SF-268; 15.2 µM (inactive) with SN12C; 31.3 µM (inactive) in the assay on SNB-19; 19.5 µM (inactive) in the assay on SW-620; 14.2 µM (inactive) in the assay with UACC-62.

For `CC(C)=CCC/C(C)=C/CC/C(C)=C/Cc1c(O)c2ccccc2oc1=O`, the GI50 in the assay on 786-0 was > 100 µM (inactive); in the assay on CCRF-CEM it was > 100 µM (inactive); in the assay on COLO 205, > 100 µM (inactive); with EKVX, > 100 µM (inactive); with HCT-15 it was 69 µM; in the assay on HL-60, 99.1 µM (inactive). The GI50 is > 100 µM (inactive) in the assay on HOP-92; > 100 µM (inactive) with HT-29; > 100 µM (inactive) with IGROV-1; > 100 µM (inactive) in the assay with MOLT-4; 75.5 µM (inactive) in the assay with OVCAR-3; 91.6 µM (inactive) in the assay with RPMI-8226. Moreover, the GI50 in the assay with SF-268 was > 100 µM (inactive); in the assay with SN12C, > 100 µM (inactive); in the assay on SNB-19 it was > 100 µM (inactive); in the assay with SW-620, > 100 µM (inactive); with UACC-62 it was 63.7 µM (inactive).

Regarding `COc1cccc(/C=C(/C(=O)O)c2cc(OC)c(OC)c(OC)c2)c1`, the GI50 was > 100 µM (inactive) with 786-0; 46.5 µM (inactive) with CCRF-CEM; > 100 µM (inactive) with COLO 205; > 100 µM (inactive) with EKVX; greater than 100 µM in the assay on HCT-15; 66.5 µM (inactive) in the assay on HL-60. The GI50 in the assay with HOP-92 is 92.3 µM (inactive); with HT-29 it was > 100 µM (inactive); with IGROV-1 it was > 100 µM (inactive); with MOLT-4, > 100 µM (inactive); in the assay on OVCAR-3 it was > 100 µM (inactive); in the assay on RPMI-8226, > 100 µM (inactive). Further, the GI50 in the assay with SF-268, with SN12C, with SNB-19, in the assay with SW-620 and in the assay on UACC-62 was > 100 µM (inactive) each time.

As to `COc1ccc2[nH]cc(CCNC(C)=O)c2c1` [MELATONIN], the GI50 was 88.5 µM (inactive) in the assay on 786-0; > 100 µM (inactive) with CCRF-CEM; 29.9 µM (inactive) in the assay on COLO 205; > 100 µM (inactive) in the assay with EKVX; 77.4 µM in the assay on HCT-15; > 100 µM (inactive) with HL-60. In addition, the GI50 in the assay on HOP-92 is > 100 µM (inactive); in the assay on HT-29, 69 µM (inactive); in the assay on IGROV-1 it was > 100 µM (inactive); in the assay with MOLT-4, > 100 µM (inactive); in the assay with OVCAR-3 it was > 100 µM (inactive); in the assay with RPMI-8226 it was 22.1 µM (inactive). The GI50 in the assay with SF-268 was > 100 µM (inactive); in the assay with SN12C, > 100 µM (inactive); in the assay with SNB-19, > 100 µM (inactive); with SW-620 it was 8.17 µM (inactive); in the assay on UACC-62, > 100 µM (inactive).
